The record followed here is patent publication US20060122201A1, “Uracil-thioether” (priority 2002, published 2006).

For this assay, the target named is T1, Pol III (PolC) from S. aureus (Staphylococcus aureus, UniProt P0C1P9).
T1 construct: His tag (pET15b vector) (N); made in house; host or cells: E. coli BL21(DE3)
T1 sequence (P0C1P9 1-1435): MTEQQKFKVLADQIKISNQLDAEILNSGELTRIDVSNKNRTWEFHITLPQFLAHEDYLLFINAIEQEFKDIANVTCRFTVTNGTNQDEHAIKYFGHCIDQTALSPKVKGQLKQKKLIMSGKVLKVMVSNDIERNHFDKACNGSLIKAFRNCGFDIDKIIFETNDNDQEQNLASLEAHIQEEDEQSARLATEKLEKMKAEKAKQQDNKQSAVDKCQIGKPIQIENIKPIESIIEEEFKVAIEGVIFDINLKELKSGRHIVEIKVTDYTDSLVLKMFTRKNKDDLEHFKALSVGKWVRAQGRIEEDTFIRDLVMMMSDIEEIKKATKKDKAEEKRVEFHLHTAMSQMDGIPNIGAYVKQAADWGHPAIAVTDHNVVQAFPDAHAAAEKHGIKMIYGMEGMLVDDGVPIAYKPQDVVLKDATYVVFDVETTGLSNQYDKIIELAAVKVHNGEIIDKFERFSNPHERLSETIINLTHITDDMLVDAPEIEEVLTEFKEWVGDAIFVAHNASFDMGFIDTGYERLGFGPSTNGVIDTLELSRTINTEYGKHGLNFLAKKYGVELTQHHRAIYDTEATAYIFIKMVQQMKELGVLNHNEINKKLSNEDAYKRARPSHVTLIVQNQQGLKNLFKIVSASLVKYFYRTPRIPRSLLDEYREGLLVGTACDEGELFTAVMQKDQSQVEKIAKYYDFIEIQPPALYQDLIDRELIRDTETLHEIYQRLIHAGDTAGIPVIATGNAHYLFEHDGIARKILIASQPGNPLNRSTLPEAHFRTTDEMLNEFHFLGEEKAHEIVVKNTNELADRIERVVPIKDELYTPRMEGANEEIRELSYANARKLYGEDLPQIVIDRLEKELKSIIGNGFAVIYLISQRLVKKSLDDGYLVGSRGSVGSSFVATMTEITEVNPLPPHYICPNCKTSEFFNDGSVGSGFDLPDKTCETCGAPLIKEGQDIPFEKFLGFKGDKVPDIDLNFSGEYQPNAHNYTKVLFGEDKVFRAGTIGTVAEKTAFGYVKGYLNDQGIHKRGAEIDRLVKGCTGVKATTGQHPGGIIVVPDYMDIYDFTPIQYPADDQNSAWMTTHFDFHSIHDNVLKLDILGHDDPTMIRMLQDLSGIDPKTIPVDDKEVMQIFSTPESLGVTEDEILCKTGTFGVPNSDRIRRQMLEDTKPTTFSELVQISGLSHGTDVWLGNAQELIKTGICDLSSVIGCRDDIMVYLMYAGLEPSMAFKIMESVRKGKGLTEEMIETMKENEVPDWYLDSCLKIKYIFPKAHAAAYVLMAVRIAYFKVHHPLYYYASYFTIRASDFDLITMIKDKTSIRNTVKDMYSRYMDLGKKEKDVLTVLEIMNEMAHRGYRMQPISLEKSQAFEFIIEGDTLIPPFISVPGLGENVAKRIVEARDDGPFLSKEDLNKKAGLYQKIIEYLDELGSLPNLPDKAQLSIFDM
Nature of the assay: Determination of the IC50 for Polymerase III (PolC), coupled pyrophosphate/ATP sulfurylase/luciferase assay. The note with it: purified His-tagged PolC 2 nM, activated calf thymus DNA, 30° C. 30 min, luminescence readout. It is filed as biochemical. An excerpt: Cloning, Expression and Purification of Pol III from S. aureus
To clone polC with an N-terminal His tag, the structural gene polC is amplified from S. aureus genomic DNA with the aid of PCR. The primers SAPol 31 5′-[…]-3′ and SAPolrev 5′-[…]-3′ are used to introduce the NdeI and BamHI restriction cleavage sites respectively in front of and behind the amplified gene. After the PCR product which is 4300 bp in size has been digested with NdeI and BamHI, it is ligated into the vector pET15b (Novagen, USA), which has likewise been digested with NdeI and BamHI, and transformed into E. coli XL-1 Blue.
After transformation into E. coli BL21(DE3), the cells are cultivated for expression of PolC at 30° C. in LB medium with 100 μg/ml ampicillin until the OD595nm is 0.5, cooled to 18° C. and, after addition of 1 mM IPTG, incubated for a further 20 hours. The cells are harvested by centrifugation, washed once in PBS with 1 mM PMSF and taken up in 50 mM NaH2PO4 pH 8.0, 10 mM imidazole, 2 mM β-mercaptoethanol, 1 mM PMSF, 20% glycerol. The cells are disrupted using a French press at 12,000 psi, the cell detritus is removed by centrifugation (27,000×g, 120 min, 4° C.) and the supernatant is stirred with an appropriate amount of Ni-NTA-agarose (from Quiagen, Germany) at 4° C. for 1 hour. After the gel matrix has been packed into a column it is washed with 50 mM NaH2PO4 pH 8.0, 2 mM β-mercaptoethanol, 20 mM imidazole, 10% glycerol, and the purified protein is then eluted with the same buffer containing 100 mM imidazole. The purified protein is mixed with 50% glycerol and stored at −20° C.
Determination of the IC50 for Polymerase III
The activity of PolC is measured in an enzymatically coupled reaction, with the pyrophosphate formed during the polymerization being converted with the aid of ATP sulfurylase into ATP, which is detected using firefly luciferase. The reaction mixture contains, in a final volume of 50 μl, 50 mM Tris/Cl pH 7.5; 5 mM DTT, 10 mM MgCl2, 30 mM NaCl, 0.1 mg/ml BSA, 10% glycerol, 20 μM each DATP, dTTP, dCTP, 2 U/ml activated calf thymus DNA (from Worthington, USA), 20 μM APS and 0.06 mM luciferin. The reaction is started by adding purified PolC in a final concentration of 2 nM and is incubated at 30° C. for 30 min. The amount of pyrophosphate formed is then converted into ATP by adding ATP sulfurylase (Sigma, USA) in a final concentration of 5 nM and incubating at 30° C. for 15 min. After addition of 0.2 nM firefly luciferase, the luminescence is measured in a luminometer for 60 s. The IC50 is reported as the concentration of an inhibitor which leads to 50% inhibition of the enzymic activity of PolC.
`CSc1nnc(CSCCn2c(=O)cc(Nc3ccc4c(c3)CCC4)[nH]c2=O)s1` [Example 15]: inhibition was half-maximal at 110 nM (IC50).
Then `CCc1cc(Nc2cc(=O)n(CCSCc3nnc(C)s3)c(=O)[nH]2)ccc1C` [Example 16], with 50 nM; and `CCc1cc(Nc2cc(=O)n(CCSCC(=O)N3CCN(c4ccc([N+](=O)[O-])cc4)CC3)c(=O)[nH]2)ccc1C` [Example 34], with 300 nM; and `CCc1cc(Nc2cc(=O)n(CCSCc3c(C)noc3C)c(=O)[nH]2)ccc1C` [Example 42], with 80 nM.
Consider `CCc1cc(Nc2cc(=O)n(CCCSCC(=O)N3CCN(c4ccc(F)cc4)CC3)c(=O)[nH]2)ccc1C` [Example 47], for which the IC50 (usually the concentration that gives 50% inhibition) came out at 400 nM.
